# Calls of active or inactive are those of the source. How the calls were made is not given here.
# Experiments:
# [1] = inhibitors of Her2 kinase expression, dose response, cell-based, AlphaScreen, CellTiter-Glo viability (AID 742); details: human cells, Her2 expression AlphaScreen; CTG viability; at 9.62 µM (top of the series)
# [2] = system: human cells, Her2 expression AlphaScreen; CTG viability; experiment: as above; details: for EC50: viability, CellTiter-Glo
Structure (SMILES),Her2 inhibition [1],EC50 [2],IC50 [2]
CCOC(=O)c1c(NC(=O)CSc2n[nH]c(N)n2)sc(CC)c1C,-10.4% (inactive),> 9.62 µM,–
CC1(C)CCCC2=C1CC1C(=O)N(Cc3cccnc3)C(=O)C1C2 (stereo unspecified),-13.3% (inactive),> 9.62 µM,–
CCn1c2ccccc2c2cc(C3C(C#N)=C(N)Oc4n[nH]c(COC)c43)ccc21 (stereo unspecified),29.6% (inactive),> 9.62 µM,–
Clc1ccc(COC(Cn2ccnc2)c2ccc(Cl)cc2Cl)c(Cl)c1 (stereo unspecified),-0.43% (inactive),> 9.62 µM,–
COC(=O)CC1=C(C(=O)OC)C(c2ccc3c(c2Cl)OCO3)C(C#N)=C(N)O1 (stereo unspecified),-10.7% (inactive),> 9.62 µM,–
CCOC(=O)C(C(=O)OCC)c1cc(Br)c2noc3c2c1C(=O)c1ccccc1-3,18.8% (inactive),> 9.62 µM,–
CC(=O)c1sc2nc(-c3cccs3)cc(C(F)(F)F)c2c1N,–,> 9.62 µM,9.32 µM
Cn1nnnc1Sc1ncnc2scc(-c3ccccc3)c12,41.9% (inactive),> 9.62 µM,–
CCCCC(CC)Cn1c2nc3ccccc3nc2c2c(=N)oc(C)nc21 (stereo unspecified),-5.07% (inactive),> 9.62 µM,–
O=S(=O)(c1ccc(F)cc1)N(CCO)CC(O)Cn1c2ccccc2c2ccccc21 (stereo unspecified),-33.6% (inactive),> 9.62 µM,–
CS(=O)(=O)c1nc(-c2ccccc2)cc(C(F)(F)F)n1,–,> 9.62 µM,9.06 µM
Cc1nnc(SCc2nnc(-c3ccccc3Br)o2)n1-c1ccccc1,-17.1% (inactive),> 9.62 µM,–
COc1ccc(-n2nnc3c(SCC(=O)Nc4ccc5c(c4)OCCO5)ncnc32)cc1,-9.58% (inactive),> 9.62 µM,–
Cc1onc(-c2ccccc2)c1C(=O)n1nnc2ccccc21,-24.8% (inactive),> 9.62 µM,–
O=C(Oc1ccc2c(c1)OCO2)c1cc2c(s1)CCC2,41.1% (inactive),> 9.62 µM,–
CCN(CC)c1ccc(-c2nn3c(-c4n[nH]c5c4CCC5)nnc3s2)cc1,-1.69% (inactive),> 9.62 µM,–
CCCCn1c(O)c(C(C)=NCCN2CCCCC2)c(=O)[nH]c1=O,-17.4% (inactive),> 9.62 µM,–
CN1CC2=Cc3ccccc3OC23Oc2ccccc2C=C3C1,-10.3% (inactive),> 9.62 µM,–
COc1ccccc1C(CC(=O)Nc1nccs1)c1ccco1 (stereo unspecified),3.82% (inactive),> 9.62 µM,–
CC(=O)Nc1cccc(NC(=O)c2c(-c3ccccc3Cl)noc2C)c1,-14.7% (inactive),> 9.62 µM,–
Clc1ccc(-n2nnnc2Sc2ncnc3sccc23)cc1,-1.39% (inactive),> 9.62 µM,–

Structure (SMILES),Her2 inhibition [1],EC50 [2],IC50 [2]
O=C1CC(Sc2nnc(-c3ccccc3O)o2)C(=O)N1c1ccccc1 (stereo unspecified),-8.42% (inactive),> 9.62 µM,–
C=C(C)Cn1c(-c2ccc(OC)cc2)nc2ccccc21,-19.2% (inactive),> 9.62 µM,–
C=CCn1c(SCc2nc3ccccc3c(=O)[nH]2)nnc1-c1cc2cc(Cl)ccc2o1,5.79% (inactive),> 9.62 µM,–
CC12CCCCC1(O)[N+](=O)C1=C(CCCC1)N2[O-] (stereo unspecified),-13.5% (inactive),> 9.62 µM,–
CSC1=N/C(=C\C=C\c2cccs2)C(=O)S1,–,> 9.62 µM,8.09 µM
CC(C)OCCCNC(=O)c1c(N)n(Cc2cccs2)c2nc3ccccc3nc12,-14.5% (inactive),> 9.62 µM,–
Cc1ccc2nc(Nc3ccccc3)c(/C=N/O)c(=O)n2c1,-10.3% (inactive),> 9.62 µM,–
CC(C)c1nnc(NC(=O)CCS(=O)(=O)c2nc(-c3cccs3)cc(C(F)(F)F)n2)s1,16.2% (inactive),> 9.62 µM,–
Cc1c(NC(=O)c2coc(=O)c(Br)c2)c(=O)n(-c2ccccc2)n1C,7.39% (inactive),> 9.62 µM,–
CC(C)N(Cc1nc(-c2ccccc2)no1)C(=O)CN1C(=O)c2ccccc2C1=O,-1.52% (inactive),> 9.62 µM,–
CCCCn1c(SCc2c(C)noc2C)nc2cc(S(N)(=O)=O)ccc21,-2.2% (inactive),> 9.62 µM,–
O=C(c1n[nH]c(=O)c2ccccc12)N1CCN(c2ccccc2)CC1,-18.2% (inactive),> 9.62 µM,–
CCN(CC(=O)NC1CCCCCC1)S(=O)(=O)c1ccccc1,-2.97% (inactive),> 9.62 µM,–
COc1ccccc1-n1c(SCC(=O)NC(C)(C)C)nc(O)cc1=O,8.19% (inactive),> 9.62 µM,–
CC(C)n1c(SCc2ccc(Cl)cc2)nc2c1c(=O)[nH]c(=O)n2C,-14.2% (inactive),> 9.62 µM,–
N#CCCS(=O)(=O)c1nnnn1-c1ccccc1,3.51% (inactive),> 9.62 µM,–
N=c1c2c(-c3ccccc3)c(-c3ccccc3)n(Cc3ccco3)c2ncn1Cc1ccco1,-27.8% (inactive),> 9.62 µM,–
CC1(C)CC(=O)C2=C(C1)OC1=C(C(=O)CC(C)(C)C1)C2c1ccc(O)cc1O,10.8% (inactive),> 9.62 µM,–
CC(C)N1CCC2(CC1)N=C(c1ccc3c(c1)OCO3)CC(c1cc(Cl)ccc1O)N2 (stereo unspecified),20.5% (inactive),> 9.62 µM,–
CCCn1c(Nc2nc3ccccc3n2C)nc2ccccc21,-10.1% (inactive),> 9.62 µM,–
Cc1ccc(S(=O)(=O)N2CCC(C(=O)N[C@@H](C)C(=O)NCCc3ccccc3)CC2)cc1,-5.1% (inactive),> 9.62 µM,–

Structure (SMILES),Her2 inhibition [1],EC50 [2],IC50 [2]
CNCCCC12CCC(c3ccccc31)c1ccccc12,-11.5% (inactive),> 9.62 µM,–
CCCCS(=O)(=O)/C=C\C=C/S(=O)(=O)CCCC,–,> 9.62 µM,4.07 µM
CC1=CC(C)(C)Nc2ccc(OC(=O)c3ccco3)cc21,1.48% (inactive),> 9.62 µM,–
Nc1ccc2ncccc2c1N,1.77% (inactive),> 9.62 µM,–
CC(=O)C(Sc1ncnc2c1nnn2-c1ccc(F)cc1)C(=O)N(C)C (stereo unspecified),-16.5% (inactive),> 9.62 µM,–
O=C(Cc1cscn1)c1ccc(O)cc1O,3.58% (inactive),> 9.62 µM,–
N#Cc1c(N)sc(=S)c2c1CCN(Cc1ccccc1)C2,-20.9% (inactive),> 9.62 µM,–
O=C1/C(=N/n2cnnc2)c2ccccc2N1Cc1ccccc1,-25% (inactive),> 9.62 µM,–
O=C(CCN1CCC(c2ccccc2)C1)c1cccs1 (stereo unspecified),-8.45% (inactive),> 9.62 µM,–
CCc1ccc(-c2nc(CN3CCC(C(=O)N4CCN(c5ccccc5)CC4)CC3)c(C)o2)cc1,-74% (inactive),> 9.62 µM,–
COc1ccc(CSc2nnnn2Cc2ccccc2)cc1OC,-31.4% (inactive),> 9.62 µM,–
CC(=NCC1CCCO1)c1c(O)n(-c2ccccc2)c(=O)[nH]c1=O (stereo unspecified),-6.53% (inactive),> 9.62 µM,–
Cc1ccc(C(c2sc3nc(C)nn3c2O)N2CCN(c3ccccc3F)CC2)cc1 (stereo unspecified),-4.31% (inactive),> 9.62 µM,–
OC(CCN1CCCC1)(c1ccccc1)C1CCCCC1 (stereo unspecified),-24.9% (inactive),> 9.62 µM,–
CCCCNC(=O)OCCNC(=O)NC,-40% (inactive),> 9.62 µM,–
CCOC(=O)Cn1nnnc1C(CC)N(Cc1cccs1)Cc1cc2ccc(OC)cc2[nH]c1=O (stereo unspecified),22.9% (inactive),> 9.62 µM,–
COc1cc(-c2nc(-c3ccc(NC(=O)c4ccc5c(c4)OCO5)cc3)no2)cc(OC)c1OC,-12.5% (inactive),> 9.62 µM,–
CCCn1c(NC(=O)c2ccco2)nc2ccccc21,–,> 9.62 µM,2.13 µM
Cc1nn2c(-c3ccco3)nnc2c2ccccc12,–,> 9.62 µM,2.38 µM
O=S1(=O)C=C(Sc2nc3ccccc3s2)c2ccccc21,–,> 9.62 µM,5.63 µM
CCN1/C(=C/C(=O)c2ccco2)Sc2ccccc21,–,> 9.62 µM,3.63 µM

Structure (SMILES),Her2 inhibition [1],EC50 [2],IC50 [2]
O=S(=O)(C/C(=C/CO)S(=O)(=O)c1ccccc1)c1ccccc1,–,> 9.62 µM,5.12 µM
COc1ccc(C(=O)C(CN2CCCC2)c2ccccc2)cc1 (stereo unspecified),–,> 9.62 µM,8.95 µM
O=S(=O)(CC(CN1CCCC1)N1CCCC1)c1ccc2ccccc2c1 (stereo unspecified),–,> 9.62 µM,7.29 µM
Cn1ncnc2c(=O)n(C)c(=O)nc1-2,–,< 0.024 µM,2.24 µM (inactive)
CN(C)CC(C(=O)c1ccccc1)c1ccccc1 (stereo unspecified),–,> 9.62 µM,8.84 µM
O=S1(=O)C=C(Sc2nnc(-c3ccccc3)o2)c2ccccc21,–,> 9.62 µM,7.54 µM
COC(=O)/C(=C1/Oc2cc(C)oc(=O)c2S1)C(F)(F)F,–,< 0.024 µM,3.78 µM (inactive)
Cc1nc2nc(-c3ccco3)nn2c(C)c1Cl,–,> 9.62 µM,2.6 µM
Cc1ccc(CNC(=O)c2cc3c(-c4ccc(Cl)cc4)nn(C)c3s2)o1,–,> 9.62 µM,6.48 µM
CS(=O)(=O)c1nc(-c2cccs2)cc(C(F)(F)F)n1,–,> 9.62 µM,7.37 µM
CCn1nc(-c2cccs2)nc2c(=O)n(C)c(=O)nc1-2,–,< 0.024 µM,2.55 µM (inactive)
Cc1ccc(-c2csc3ncnc(Sc4nnc(CN5CCCCCC5=O)o4)c23)cc1,–,> 9.62 µM,4.53 µM
CS(=O)(=O)c1nc(-c2ccco2)cc(C(F)(F)F)n1,–,> 9.62 µM,9.15 µM
COC(=O)c1sccc1NC(=O)c1ccc(Cl)s1,–,> 9.62 µM,9 µM
Nc1nnnn1/N=C/C(Br)=C/c1ccccc1,–,> 9.62 µM,3.58 µM
O=S1(=O)C=C(Sc2nc3cc(Cl)ccc3o2)c2ccccc21,–,> 9.62 µM,9.25 µM
Cc1nc(NC(=O)c2ccco2)sc1C(=O)Nc1ccc(Br)cc1,–,> 9.62 µM,1.49 µM
O=C(CSc1nc2cc(Cl)ccc2s1)c1ccco1,–,> 9.62 µM,5.09 µM
Cn1c(C(C#N)C(=O)c2ccco2)nc2ccccc21 (stereo unspecified),–,> 9.62 µM,2.25 µM
CCn1nc(-c2ccccc2)nc2c(=O)n(C)c(=O)nc1-2,–,< 0.024 µM,4.48 µM (inactive)
